Source: ChEMBL document CHEMBL5584243, “Discovery of JNJ-74856665: A Novel Isoquinolinone DHODH Inhibitor for the Treatment of AML” (J Med Chem, 2024)
Converted amounts (≈) assume the structure as drawn.

Experiments:
[1] = molecular target: T1, Aryl hydrocarbon receptor (Homo sapiens, UniProt P35869); assay: Activation of AhR (unknown origin) at 1 to 10 uM; details: dose 1-10 µM
T1 sequence (P35869 whole entry): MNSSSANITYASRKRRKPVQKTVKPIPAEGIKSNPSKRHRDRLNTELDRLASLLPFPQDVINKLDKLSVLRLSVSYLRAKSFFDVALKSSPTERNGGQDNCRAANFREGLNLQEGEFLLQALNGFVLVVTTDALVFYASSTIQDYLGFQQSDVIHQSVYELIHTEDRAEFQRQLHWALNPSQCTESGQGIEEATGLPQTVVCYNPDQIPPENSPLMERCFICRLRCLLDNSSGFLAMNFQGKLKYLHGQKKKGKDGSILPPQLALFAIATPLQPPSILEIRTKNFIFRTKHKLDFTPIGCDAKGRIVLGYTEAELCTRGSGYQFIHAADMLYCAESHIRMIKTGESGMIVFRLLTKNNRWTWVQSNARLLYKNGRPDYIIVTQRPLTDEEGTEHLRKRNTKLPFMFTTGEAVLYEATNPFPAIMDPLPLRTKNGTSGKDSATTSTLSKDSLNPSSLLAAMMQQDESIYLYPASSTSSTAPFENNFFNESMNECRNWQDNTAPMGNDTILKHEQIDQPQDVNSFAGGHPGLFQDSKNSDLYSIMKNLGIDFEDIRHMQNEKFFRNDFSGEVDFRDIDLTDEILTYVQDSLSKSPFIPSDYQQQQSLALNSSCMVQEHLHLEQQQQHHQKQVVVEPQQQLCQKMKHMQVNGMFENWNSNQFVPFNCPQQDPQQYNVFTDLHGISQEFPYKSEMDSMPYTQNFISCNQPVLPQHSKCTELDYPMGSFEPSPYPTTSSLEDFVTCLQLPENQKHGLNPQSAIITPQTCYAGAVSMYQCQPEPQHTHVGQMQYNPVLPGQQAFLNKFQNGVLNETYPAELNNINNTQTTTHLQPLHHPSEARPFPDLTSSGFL

[2] = Metabolic stability in human liver microsomes assessed as half life incubated upto 60 mins in presence of NADPH by LC-MS/MS analysis; type: ADME, Microsome
[3] = Equilibrium solubility of compound in PBS at pH 7 incubated for 2 to 5 days by HPLC analysis; type: physicochemical; details: time 2-5 day
[4] = Passive permeability across apical to basolateral side in dog MDCK-MDR1 cells; type: ADME, cell-based, Canis lupus familiaris
[5] = Metabolic stability in mouse liver microsomes assessed as half life incubated upto 60 mins in presence of NADPH by LC-MS/MS analysis; type: ADME, Microsome
[6] = Equilibrium solubility of compound in PBS at pH 2 incubated for 2 to 5 days by HPLC analysis; type: physicochemical; details: time 2-5 day; for solubility thermodynamic: PBS
[7] = tested on: MOLM-13; assay: Antiproliferative activity against human MOLM-13 cells assessed as inhibition of cell growth incubated for 72 hrs by CellTiter-Glo assay; type: functional, cell-based; details: MOLM-13, 72 h
[8] = tested on: MOLM-13; assay: Antitumor activity against human MOLM-13 cells xenografted in NSG mouse assessed as tumor growth inhibition at po administrated for 21 days; type: functional, organism-based; details: time 21.0 day
[9] = Cmax in C57BL mouse at […] measured upto 24 hrs by LC-MS/MS analysis; type: ADME, organism-based; details: in vivo
[10] = Equilibrium solubility of compound in SGF at pH 1 using crystalline form incubated for 2 to 5 days by HPLC analysis; type: ADME; details: time 2-5 day
[11] = Volume of distribution at steady state in C57BL mouse at 2 mg/kg,iv measured upto 24 hrs by LC-MS/MS analysis; type: ADME, organism-based; details: in vivo, read-out: Vdss
[12] = Plasma protein binding in C57BL mouse at 1 uM incubated for 6.5 hrs by LC-MS/MS analysis; type: ADME, cell-free; details: read-out: PPB (converted)
[13] = Half life in C57BL mouse at 2 mg/kg,iv measured upto 24 hrs by LC-MS/MS analysis; type: ADME, organism-based; details: in vivo
[14] = Lipophilicity, logD of compound; type: physicochemical; details: octanol/water
[15] = Plasma protein binding in human at 1 uM incubated for 6.5 hrs by LC-MS/MS analysis; type: ADME, cell-free; details: read-out: PPB (converted)
[16] = Equilibrium solubility of compound in FaSSIF at pH 6.5 using crystalline form incubated for 2 to 5 days by HPLC analysis; type: ADME; details: time 2-5 day
[17] = Oral bioavailability in C57BL mouse at 10 mg/kg measured upto 24 hrs by LC-MS/MS analysis; type: ADME, organism-based; details: in vivo
[18] = Tmax in C57BL mouse at […] measured upto 24 hrs by LC-MS/MS analysis; type: ADME, organism-based; details: in vivo
[19] = AUC (0 to infinity) in C57BL mouse at 2 mg/kg,iv measured upto 24 hrs by LC-MS/MS analysis; type: ADME, organism-based; details: in vivo
[20] = tested on: MOLM-13; assay: Antitumor activity against human MOLM-13 cells xenografted in NSG mouse assessed as tumor growth inhibition at 0.625 to 2.5 mg/kg,po administrated for 21 days relative to control; type: functional; details: dose 0.625-2.5 mg/kg, time 21 day
[21] = Equilibrium solubility of compound in SGF at pH 1 using amorphous form of sample incubated for 2 to 5 days by HPLC analysis; type: ADME; details: time 2-5 day
[22] = Equilibrium solubility of compound in FaSSIF at pH 6.5 using amorphous form of sample incubated for 2 to 5 days by HPLC analysis; type: ADME; details: time 2-5 day
[23] = molecular target: Dihydroorotate dehydrogenase (quinone), mitochondrial (Homo sapiens, UniProt Q02127); assay: Inhibition of recombinant human DHODH followed by DHO substrate by DCIP dye absorbance based spectrophotometric analysis
Dihydroorotate dehydrogenase (quinone), mitochondrial, sequence (Q02127 whole entry): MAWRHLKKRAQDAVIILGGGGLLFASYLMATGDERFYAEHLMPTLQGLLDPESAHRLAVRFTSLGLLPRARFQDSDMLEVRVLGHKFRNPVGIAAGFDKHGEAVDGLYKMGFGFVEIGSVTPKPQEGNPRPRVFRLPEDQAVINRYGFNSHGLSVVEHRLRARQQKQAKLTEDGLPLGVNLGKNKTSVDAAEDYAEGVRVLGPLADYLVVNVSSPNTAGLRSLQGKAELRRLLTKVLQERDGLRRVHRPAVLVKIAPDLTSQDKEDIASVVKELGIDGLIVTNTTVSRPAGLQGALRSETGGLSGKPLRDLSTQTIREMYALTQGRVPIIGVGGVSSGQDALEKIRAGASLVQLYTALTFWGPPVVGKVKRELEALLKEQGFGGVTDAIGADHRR

Compound | half-life [2] | solubility thermodynamic [3] | Papp A→B [4] | half-life [5] | solubility thermodynamic [6] | IC50 [7] | further results
Cc1oncc1C(=O)Nc1ccc(C(F)(F)F)cc1 [LEFLUNOMIDE] | – | – | – | – | – | – | Activity [1]: Active
CCn1c(CO)nn(-c2cc3c(C(C)C)cn(-c4ccccc4C(F)F)c(=O)c3cc2F)c1=O | 179 min | 11 µM (≈ 5.2 µg/mL) | 39 ×10⁻⁶ cm/s | > 180 min | 228 µM (≈ 108 µg/mL) | 0.56 nM | –
CCn1c(CO)nn(-c2cc3c(C4(C)CC4)cn(-c4c(F)cccc4Cl)c(=O)c3cc2F)c1=O | – | – | – | – | – | 3.1 nM | –
CCn1c(CO)nn(-c2cc3c(C(C)C)cn(-c4cc(F)ccc4C)c(=O)c3cc2F)c1=O | > 180 min | 30 µM (≈ 13.6 µg/mL) | 45.9 ×10⁻⁶ cm/s | > 180 min | 30 µM (≈ 13.6 µg/mL) | 0.86 nM | –
CCn1c(CO)nn(-c2cc3c(C(C)C)cn(-c4c(F)cccc4Cl)c(=O)c3cc2F)c1=O | > 180 min | < 4 µM | 24.5 ×10⁻⁶ cm/s | > 180 min | < 4 µM | 0.22 nM | Activity [8]: Dose-Dependent Effect; Cmax [9]: 8200 ng/mL; solubility thermodynamic [10]: < 5 µg/mL; Vd [11]: 1.3 L/kg; fraction unbound at 6.5 h, 1 µM [12]: 0.024; half-life [13]: 306 min; logD [14]: 3.1; fraction unbound at 6.5 h, 1 µM [15]: 0.042; solubility thermodynamic [16]: < 5 µg/mL; bioavailability [17]: 135%; Tmax [18]: 0.83 h; AUC [19]: 71.8 µg·h/mL; TGI [20]: >80%
CCn1c(CO)nn(-c2cc3c(C(C)C)cn(-c4ccccc4Cl)c(=O)c3cc2F)c1=O | > 180 min | 155 µM (≈ 70.8 µg/mL) | 50.7 ×10⁻⁶ cm/s | > 180 min | 153 µM (≈ 69.9 µg/mL) | 0.28 nM | –
CCn1c(CO)nn(-c2nc3c(C(C)C)cn(-c4c(F)cccc4Cl)c(=O)c3cc2F)c1=O | – | – | – | – | – | 0.44 nM | –
CCn1c(CO)nn(-c2cc3c(C(C)C)cn(-c4c(C)cccc4F)c(=O)c3cc2F)c1=O | > 180 min | 24 µM (≈ 10.9 µg/mL) | 47.4 ×10⁻⁶ cm/s | > 180 min | 23 µM (≈ 10.5 µg/mL) | 0.69 nM | –
CCn1c(CO)nn(-c2cc3c([C@H](C)C(F)(F)F)cn(-c4ccccc4C)c(=O)c3cc2F)c1=O | > 180 min | 180 µM (≈ 88.3 µg/mL) | 20.3 ×10⁻⁶ cm/s | > 180 min | 164 µM (≈ 80.4 µg/mL) | 0.59 nM | –
C=C(C)c1cn(-c2c(F)cccc2Cl)c(=O)c2cc(F)c(-n3nc(CO)n(CC)c3=O)nc12 | – | – | – | – | – | 1.1 nM | –
CCn1c(CO)nn(-c2cc3c(C(C)C)cn(-c4ccccc4C(F)(F)F)c(=O)c3cc2F)c1=O | > 180 min | 39 µM (≈ 19.1 µg/mL) | 40.4 ×10⁻⁶ cm/s | > 180 min | – | 0.63 nM | Cmax [9]: 5700 ng/mL; solubility thermodynamic [21]: 17 µg/mL (≈ 34.7 µM); Vd [11]: 1.2 L/kg; fraction unbound at 6.5 h, 1 µM [12]: 0.067; half-life [13]: 258 min; fraction unbound at 6.5 h, 1 µM [15]: 0.063; solubility thermodynamic [22]: 97 µg/mL (≈ 198 µM); bioavailability [17]: 127%; Tmax [18]: 1.3 h; AUC [19]: 71.1 µg·h/mL; solubility ([6]; buffer): Not Active
CCn1c(CO)nn(-c2cc3c(C(C)C)cn(-c4ccccc4F)c(=O)c3cc2F)c1=O | > 180 min | 19 µM (≈ 8.37 µg/mL) | 30.1 ×10⁻⁶ cm/s | > 180 min | 19 µM (≈ 8.37 µg/mL) | 2.1 nM | –
CCn1c(CO)nn(-c2cc3c([C@@H](C)C(F)(F)F)cn(-c4ccccc4C)c(=O)c3cc2F)c1=O | > 180 min | 181 µM (≈ 88.8 µg/mL) | < 41 ×10⁻⁶ cm/s | > 180 min | 184 µM (≈ 90.2 µg/mL) | 0.42 nM | Cmax [9]: 4500 ng/mL; solubility thermodynamic [21]: < 5 µg/mL; Vd [11]: 1.3 L/kg; fraction unbound at 6.5 h, 1 µM [12]: 0.093; half-life [13]: 240 min; logD [14]: 2.6; fraction unbound at 6.5 h, 1 µM [15]: 0.1; solubility thermodynamic [22]: 41 µg/mL (≈ 83.6 µM); bioavailability [17]: 98%; Tmax [18]: 1.5 h; AUC [19]: 39 µg·h/mL
CCn1c(CO)nn(-c2cc3c(C(C)C)cn(-c4cccc(F)c4C)c(=O)c3cc2F)c1=O | > 180 min | 189 µM (≈ 85.9 µg/mL) | 23.5 ×10⁻⁶ cm/s | > 180 min | 235 µM (≈ 107 µg/mL) | 5.6 nM | –
CCn1c(CO)nn(-c2cc3c(C(C)C)cn(-c4ccccc4OC)c(=O)c3cc2F)c1=O | > 180 min | 20 µM (≈ 9.05 µg/mL) | 25.1 ×10⁻⁶ cm/s | > 180 min | 19 µM (≈ 8.6 µg/mL) | 1 nM | –
CCn1c(CO)nn(-c2cc3c(C(C)C)cn(-c4c(C)cnc(OC)c4Cl)c(=O)c3cc2F)c1=O | > 180 min | 21 µM (≈ 10.5 µg/mL) | 42.6 ×10⁻⁶ cm/s | > 180 min | 78 µM (≈ 39.2 µg/mL) | 2.4 nM | Cmax [9]: 4100 ng/mL; solubility thermodynamic [21]: < 5 µg/mL; Vd [11]: 2.1 L/kg; fraction unbound at 6.5 h, 1 µM [12]: 0.038; half-life [13]: 420 min; fraction unbound at 6.5 h, 1 µM [15]: 0.059; solubility thermodynamic [22]: 16 µg/mL (≈ 31.9 µM); bioavailability [17]: 109%; Tmax [18]: 1.5 h; AUC [19]: 82.5 µg·h/mL
CCn1c(CO)nn(-c2cc3c(C(C)C)cn(-c4ccc(F)cc4C)c(=O)c3cc2F)c1=O | > 180 min | 266 µM (≈ 121 µg/mL) | 48.2 ×10⁻⁶ cm/s | > 180 min | 25 µM (≈ 11.4 µg/mL) | 0.67 nM | logD [14]: 2.7
CCn1c(CO)nn(-c2nc(OC(C)C(F)(F)F)c(C(=O)Nc3c(F)cccc3Cl)cc2F)c1=O (stereo unspecified) | – | < 4 µM | – | – | – | 0.16 nM | IC50 [23]: 0.2 nM
CCc1ccccc1-n1cc(C(C)C)c2cc(-n3nc(CO)n(CC)c3=O)c(F)cc2c1=O | > 180 min | 157 µM (≈ 70.7 µg/mL) | 37.3 ×10⁻⁶ cm/s | 110 min | 193 µM (≈ 86.9 µg/mL) | 1.8 nM | –
